Reference: patent US12239643B2, “Therapeutic agent for inflammatory diseases, autoimmune diseases, fibrotic diseases, and cancer diseases” (MEIJI SEIKA PHARMA CO., LTD., priority 2018, dated 2025)
Like-named read-outs stand apart in the source and are kept apart here.

Columns and labels:
[1] = tested on: substance P-induced pruritus behavior, ICR mice; test: Mouse pruritus model; assay type: in vivo; conditions: oral, substance P intradermally 2 hours after administration
Protocol: Evaluation was carried out using male ICR mice (5 to 7 weeks of age). A micro magnet was embedded under the skin of both hind limbs of the mice in advance, and the hair on the back of the mouse neck was shaved. On the day of the test, the test compound was dissolved or suspended in 0.5% w/v methylcellulose (0.5% MC) and orally administered. Two hours after administration of the test compound, 50 μL of 300 nM substance P dissolved in saline was intradermally administered to the back of the mouse neck. The blank was a non-pruritus-induced group orally administered with 0.5% MC instead of the test compound and intradermally administered with saline instead of substance P, and the pruritus induction control was a group orally administered with 0.5% MC instead of the test compound. The pruritus measurement system for small animals, MicroAct II, automatically measured pruritus behavior for 30 minutes immediately after intradermal administration.

PDE4 = test: Evaluation of PDE4 inhibitory activity, scintillation proximity assay; assay type: biochemical
Summary of the method: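 SPA with [2,8-3H]-cAMP and diluted PDE4 enzyme preparation in 50 mM Tris-HCl pH 7.4, 8.3 mM MgCl2, 1.7 mM EGTA, 3 mg/mL BSA, 120 min at room temperature. Product captured on ZnSO4-containing YSi-SPA beads, scintillation counted; IC50 from inhibition curves vs DMSO control and no-enzyme blank.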

[2] = tested on: oxazolone-induced auricle edema, BALB/c mice; test: Hapten repeated application mouse chronic dermatitis model (oral, topical); assay type: in vivo; conditions: for Mouse Chronic Dermatitis Model (Test Example 8), Topical: edema suppression rate: 20 μL of 0.3 to 3% solution once or twice a day for 10 days
Protocol: Evaluation was carried out using female BALB/c mice (7 to 8 weeks of age). First, the hair of the abdomen of the mice was treated with a hair clipper, and then 150 μL of a 3% oxazolone acetone/ethanol solution was applied to the abdomen as a hapten. One week later, 20 μL/ear of 1% oxazolone acetone/ethanol solution was applied to the outer surface of the auricle of both ears of the mice 3 times/week to induce inflammation. A 1% oxazolone-acetone/ethanol solution was applied every other day for 10 days from 1 week after the start of inflammation induction. In addition, for 10 days from 1 week after the start of inflammation induction, the test compound suspended in 0.5% w/v methylcellulose (0.5% MC) was orally administered at 0.3 to 10 mg/kg twice a day (10 μL/g), or 20 μL of a 0.3 to 3% test compound dissolved in an acetone/ethanol solution was applied once or twice a day (topical administration). A 1% oxazolone was not applied to the blank. The control was one in which 1% oxazolone was applied and only 0.5% MC was orally administered without using the test compound, or only an acetone/ethanol solution was applied.
After administration for 10 days, auricle thickness was measured using a dial thickness gauge, and the changes in auricular thickness before the treatment (immediately before the start of administration of the test compound) and after the treatment (after the administration of the test compound for 10 days) were used to calculate the edema suppression rate by the following formula. Edema Suppression Rate (%)={1−(Auricle Thickness After Treatment by Test Compound−Auricle Thickness Before Treatment by Test Compound)/(Auricle Thickness After Treatment of Control−Auricle Thickness Before Treatment of Control)}×100
The measurement results obtained by measuring the edema suppression rate at the time of oral administration of each test compound by the above method were evaluated in accordance with the following evaluated basis; A: 70% or more, B: 40% or more and less than 70%, and C: less than 40%. In addition, the measurement results obtained by measuring the edema suppression rate at the time of topical administration of each test compound were evaluated in accordance with the following evaluated basis; A: 100% or more, B: 70% or more and less than 100%, and C: less than 70%.

[3] = Hepatic metabolic stability (rat liver microsome method); assay type: in vitro ADME; conditions: rat liver microsomes 0.5 mg/mL, test substance 1 μM, NADPH 1 mM, 37° C., 30 minutes
Summary of the method: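 Rat liver microsomes (0.5 mg/mL final) with test compound (1 μM final) in 100 mM potassium phosphate pH 7.4, 37° C; reaction started with NADPH (1 mM final) after 5 min preincubation. Acetonitrile stop at 0 and 30 min, LC-MS quantitation; % remaining = 30 min/0 min ×100, graded A ≥75%, B 60–<75%, C 45–<60%, D <45%.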

TNFα [4] = test: Cytokine suppression using whole human blood: TNFα (lipopolysaccharide stimulus); assay type: cell-based; conditions: Homo sapiens, human whole blood; read-out: TNFα Inhibitory Activity, Human Whole Blood (Test Example 3)
Protocol: The test compound dissolved in dimethyl sulfoxide was added to a 96-well plate, and RPMI-1640 medium and human peripheral blood containing sodium heparin were added, followed by culture at 37° C. under 5% CO2 for 1 hour. A medium containing only dimethyl sulfoxide instead of the test compound was added to the control well. To each well, lipopolysaccharide (final concentration 10 ng/mL) as a TNFα production stimulant, or phytohaemagglutinin (final concentration 20 μg/mL) as an IL-17A production stimulant, or CytoStim reagent ( 1/100 concentration) and CD28 antibody (final concentration 2.5 ng/mL) as an IL-4 production stimulant and an IL-5 production stimulant were added, followed by culture at 37° C. under 5% CO2. The culture was carried out for about 18 hours for the evaluation of the amount of TNFα, and for about 48 hours for the evaluation of the amounts of IL-17A, IL-4, and IL-5.
After collecting the culture supernatant after culturing, the amount of each cytokine was measured by the sandwich ELISA method. The cytokine production suppression rate (inhibition rate) by the test compound was calculated by the following formula from the cytokine production amount when the test compound was added, with the cytokine production amount for the control well as 100%. Inhibition Rate={1−(Cytokine Amount at Addition of Each Test Compound)/(Cytokine Amount for Control Well)}×100
In addition, the cytokine inhibitory activity (concentration for the inhibition rate of 50%) of the test compound was calculated from the inhibition curves based on the inhibition rates for various concentrations of the test compound.
The measurement results obtained by measuring the TNFα inhibitory activity and IL-5 inhibitory activity (50% inhibitory concentration) of the test compounds by the above method were evaluated in accordance with the following evaluated basis; A: less than 100 nM, B: 100 nM or more and less than 500 nM, and C: 500 nM or more. In addition, the measurement results obtained by measuring the IL-17A inhibitory activity and IL-4 inhibitory activity (50% inhibitory concentration) of the test compounds were evaluated in accordance with the following evaluated basis; A: less than 500 nM, B: 500 nM or more and less than 5000 nM, and C: 5000 nM or more.

[5] = tested on: oxazolone-induced auricle edema, BALB/c mice; test: Mouse delayed type hypersensitivity (DTH) model (topical); assay type: in vivo; conditions: 20 μL applied to auricle, 24 hours after application
Protocol: Evaluation was carried out using female BALB/c mice (7 to 8 weeks of age). First, the hair of the abdomen of the mice was treated with a hair clipper, and then 150 μL of a 3% oxazolone acetone/ethanol solution was applied to the abdomen as a hapten. Five days later, 20 μL/ear of a 1% oxazolone.acetone/ethanol solution was applied to the outer surface of the auricle of both ears of the mouse to induce inflammation. Thirty minutes after the start of inflammation induction, 20 μL of the test compound dissolved in an acetone/ethanol solution was applied to the auricle. A 1% oxazolone was not applied to the blank. The control was one in which 1% oxazolone was applied and only an acetone/ethanol solution was applied without using the test compound. The auricle thickness 24 hours after application of the test compound was measured with a dial thickness gauge, and the value obtained by subtracting the blank value was used to calculate the edema suppression rate by the following formula. Edema Suppression Rate (%)={1−(Value at Addition of Each Test Compound−Blank Value)/(Control Value−Blank Value)}×100 The measurement results obtained by measuring the edema suppression rate at the time of topical administration of each test compound by the above method were evaluated in accordance with the following evaluated basis; A: 60% or more, B: 40% or more and less than 60%, and C: less than 40%.

TNFα [6] = test: Cytokine suppression using human peripheral blood mononuclear cells: TNFα; assay type: cell-based; conditions: human PBMC, lipopolysaccharide 1 ng/mL; read-out: TNFα Inhibitory Activity, Human PBMC (Test Example 4)
Protocol: First, peripheral blood mononuclear cells (PBMC) were separated from whole blood by specific gravity centrifugation. Then, the isolated peripheral blood mononuclear cells were added to RPMI-1640 medium (containing 10% fetal bovine serum, penicillin, streptomycin, L-glutamine, and 2-mercaptoethanol), and cultured in a 96-well plate at 37° C. under 5% CO2 for 0 to 1 hour. The test compound dissolved in dimethyl sulfoxide was added to each well, followed by further culture at 37° C. under 5% CO2 for 1 hour. A medium containing only dimethyl sulfoxide instead of the test compound was added to the control well. To each well, lipopolysaccharide (final concentration 1 ng/mL) as a TNFα production stimulant and an IL-23 production stimulant, or concanavalin A (final concentration 20 μg/mL) as an IL-17A production stimulant was added, followed by culture at 37° C. under 5% CO2. In addition, as IL-4 production stimulus, IL-5 production stimulus, and IL-13 production stimulus, PBMC was seeded on a 96-well plate previously coated with a CD3 antibody (final concentration 3 μg/mL), and a CD28 antibody (final concentration 5 ng/mL) was added. The culture was carried out for about 18 hours for the evaluation of the amounts of TNFα and IL-23, and about 48 hours for the evaluation of the amounts of IL-17A, IL-4, IL-5, and IL-13. After collecting the culture supernatant after culturing, the amount of each cytokine was measured by the sandwich ELISA method in the same manner as in Test Example 3, and the cytokine production suppression rate (inhibition rate) and the cytokine inhibitory activity (concentration for the inhibition rate of 50%) of each test compound were calculated.
The measurement results obtained by measuring the TNFα inhibitory activity and IL-5 inhibitory activity (50% inhibitory concentration) of the test compounds by the above method were evaluated in accordance with the following evaluated basis; A: less than 10 nM, B: 10 nM or more and less than 100 nM, and C: 100 nM or more. In addition, the measurement results obtained by measuring the IL-17A inhibitory activity, IL-23 inhibitory activity, IL-4 inhibitory activity, and IL-13 inhibitory activity (50% inhibitory concentration) of the test compounds were evaluated in accordance with the following evaluated basis; A: less than 500 nM, B: 500 nM or more and less than 5000 nM, and C: 5000 nM or more.

[7] = finer grading of compounds rated A in Evaluation 1, read-out: PDE4 Inhibitory Activity (Evaluation 2)

Structure (SMILES)	scratching behavior (pruritus behavior for 30 minutes) [1]	IC50 (PDE4; [7]) [µM]	IC50 (PDE4; scintillation proximity assay, read-out: PDE4 Inhibitory Activity (Evaluation 1; concentration for the inhibition rate of 50%)) [µM]	PDE4 inhibitory activity (PDE4; summary in words of Tables 57 to 69)	Mouse Chronic Dermatitis Model (Test Example 8), Oral: edema suppression rate ([2]; oral, 0.3 to 10 mg/kg twice a day for 10 days)	Mouse Chronic Dermatitis Model (Test Example 8), Topical: edema suppression rate [2]	Residual ratio (% remaining for 30-minute reaction) [3]	IC50 (TNFα [4]) [µM]	Mouse DTH Model (Test Example 11), Topical: edema suppression rate [5]	IC50 (TNFα [6]) [µM]
CC(C)(C(=O)O)c1ccc(C(O)CCCN2CCC(C(O)(c3ccccc3)c3ccccc3)CC2)cc1 (stereo not shown) [fexofenadine, reference compound]	did not suppress scratching behavior									
CC(O)C(F)(F)Oc1ccc(-c2nccs2)c2oc(N3CC4CC(C3)N4)nc12 (single isomer, unassigned) [Example 251, 1-((2-(3,6-Diazabicyclo[3.1.1]heptan-3-yl)-7-(thiazol-2-yl)benzo[d]oxazol-4-yl)oxy)-1,1-difluoropropan-2-ol]		≤ 0.001	< 0.1	particularly excellent	B (B: 40% or more and less than 70%)	A (A: 100% or more)	A (A: a % remaining rate of 75% or more)	< 0.1	B (B: 40% or more and less than 60%)	
N#Cc1ccc(Oc2ccc3c(c2)COB3O)cc1 [crisaborole, reference compound]		> 0.1				C (C: less than 70%)			C (C: less than 40%)	> 0.1
